Measured values from ChEMBL document CHEMBL1201862, “PubChem BioAssay data set” (2004).
Activity calls are given as the source filed them.

What was measured:
[1] = molecular target: Eukaryotic translation initiation factor 4H (Homo sapiens, UniProt Q15056); assay: inhibitors of translation initiation factor eIF4H – SAR follow-up (AID 435011); format: functional
[2] = molecular target: Polyadenylate-binding protein 1 (Homo sapiens, UniProt P11940); assay: PABP inhibition in translation initiation, SAR follow-up (AID 435018); format: functional
Tumor necrosis factor = Tumor necrosis factor (Homo sapiens, UniProt P01375); assay: analog potency on TNFa NF-kB signaling – cell-based, revised, SAR follow-up (AID 2337); format: functional
[3] = molecular target: T1, Nucleotide-binding oligomerization domain-containing protein 1 (Homo sapiens, UniProt Q9Y239); assay: blockers of NOD1 pathway activity – revised, SAR follow-up (AID 2333); format: functional
T1 sequence (Q9Y239 whole entry): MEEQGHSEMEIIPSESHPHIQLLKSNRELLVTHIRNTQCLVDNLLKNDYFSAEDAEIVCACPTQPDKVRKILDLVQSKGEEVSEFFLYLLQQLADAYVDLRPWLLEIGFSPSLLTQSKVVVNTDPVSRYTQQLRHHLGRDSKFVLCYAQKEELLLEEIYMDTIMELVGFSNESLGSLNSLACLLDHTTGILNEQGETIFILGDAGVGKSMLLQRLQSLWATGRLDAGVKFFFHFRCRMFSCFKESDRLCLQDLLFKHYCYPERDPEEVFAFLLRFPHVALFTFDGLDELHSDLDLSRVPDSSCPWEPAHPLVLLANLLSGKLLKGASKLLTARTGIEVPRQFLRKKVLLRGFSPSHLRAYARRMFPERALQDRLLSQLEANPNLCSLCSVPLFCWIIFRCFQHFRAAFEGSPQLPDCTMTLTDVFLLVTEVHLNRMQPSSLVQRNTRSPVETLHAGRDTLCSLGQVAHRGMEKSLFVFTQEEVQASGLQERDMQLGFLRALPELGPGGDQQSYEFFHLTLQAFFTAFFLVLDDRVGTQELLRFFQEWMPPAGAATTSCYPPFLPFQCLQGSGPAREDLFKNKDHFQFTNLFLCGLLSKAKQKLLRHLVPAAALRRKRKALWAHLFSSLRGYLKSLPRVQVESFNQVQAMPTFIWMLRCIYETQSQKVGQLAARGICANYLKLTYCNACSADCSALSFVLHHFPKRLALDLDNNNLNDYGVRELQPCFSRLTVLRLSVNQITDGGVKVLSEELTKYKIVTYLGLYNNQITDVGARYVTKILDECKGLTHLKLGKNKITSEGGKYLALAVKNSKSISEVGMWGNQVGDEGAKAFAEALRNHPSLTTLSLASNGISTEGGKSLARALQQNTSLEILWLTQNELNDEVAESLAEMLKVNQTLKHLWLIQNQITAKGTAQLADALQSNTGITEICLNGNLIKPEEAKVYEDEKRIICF

[4] = molecular target: Nucleotide-binding oligomerization domain-containing protein 2 (Homo sapiens, UniProt Q9HC29); assay: PubChem AID 2334; format: functional
HEK293 = assay: cells; conditions: Homo sapiens;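 further: cells exposed to compound for 14 hours overnight before viability readout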
[5] = Luminescence Cell-Based Dose Retest to Confirm Inhibitors of Cancer Stem Cells. [Related pubchem assays (depositor defined):AID2717, AID2721]; format: functional; conditions: Homo sapiens
[6] = molecular target: T2, Ubiquitin-conjugating enzyme E2 N (Homo sapiens, UniProt P61088); format: functional;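 further: Dose-response confirmation in a TR-FRET assay detecting UBC13-driven polyubiquitin chain formation, inhibition measured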
T2 sequence (P61088 whole entry): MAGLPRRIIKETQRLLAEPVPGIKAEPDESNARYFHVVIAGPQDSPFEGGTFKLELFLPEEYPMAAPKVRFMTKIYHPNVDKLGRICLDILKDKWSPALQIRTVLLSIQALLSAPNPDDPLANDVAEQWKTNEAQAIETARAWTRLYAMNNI

Integrin alpha-4 = Integrin alpha-4 (Homo sapiens, UniProt P13612); assay: allosteric modulators of alpha4 integrin VLA-4 – cell-based, LIBS antibody binding, flow cytometry, SAR follow-up (AID 488791); format: functional
[7] = molecular target: T3, RNA-binding protein pos-1 (Caenorhabditis elegans, UniProt G5EF15); assay: disruptors of C. elegans POS-1 RNA interaction – biochemical, fluorescence polarization, dose response (AID 1964);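 further: purified POS-1 fused to maltose binding protein made in E. coli; potency of compounds blocking POS-1 binding to fluorescent RNA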
T3 sequence (G5EF15 whole entry): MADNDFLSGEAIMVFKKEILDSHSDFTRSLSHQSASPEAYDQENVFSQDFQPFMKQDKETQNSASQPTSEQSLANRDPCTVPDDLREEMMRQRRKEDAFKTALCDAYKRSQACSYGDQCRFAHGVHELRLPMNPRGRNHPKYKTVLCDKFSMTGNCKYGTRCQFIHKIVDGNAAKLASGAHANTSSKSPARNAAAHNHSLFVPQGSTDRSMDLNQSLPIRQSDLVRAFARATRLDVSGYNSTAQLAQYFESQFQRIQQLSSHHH

[8] = Counterscreen for IDE inhibitors: Luminescence-based cell-based high throughput dose response assay to identify compounds that are cytotoxic to HEK cells. [Related pubchem assays: 434962 (Primary screen (IDE inhibitors in singlicate)), 449730 (Counterscreen (Cytotoxicity in triplicate)), 435028 (Confirmation (IDE inhibitors in triplicate)) …; format: functional; conditions: HEK293
[9] = molecular target: T4, Zinc finger protein mex-5 (Caenorhabditis elegans, UniProt Q9XUB2); assay: potency of MEX-5 RNA-binding blockers – biochemical, C. elegans, fluorescence polarization, dose response (AID 1960)
T4 sequence (Q9XUB2 whole entry): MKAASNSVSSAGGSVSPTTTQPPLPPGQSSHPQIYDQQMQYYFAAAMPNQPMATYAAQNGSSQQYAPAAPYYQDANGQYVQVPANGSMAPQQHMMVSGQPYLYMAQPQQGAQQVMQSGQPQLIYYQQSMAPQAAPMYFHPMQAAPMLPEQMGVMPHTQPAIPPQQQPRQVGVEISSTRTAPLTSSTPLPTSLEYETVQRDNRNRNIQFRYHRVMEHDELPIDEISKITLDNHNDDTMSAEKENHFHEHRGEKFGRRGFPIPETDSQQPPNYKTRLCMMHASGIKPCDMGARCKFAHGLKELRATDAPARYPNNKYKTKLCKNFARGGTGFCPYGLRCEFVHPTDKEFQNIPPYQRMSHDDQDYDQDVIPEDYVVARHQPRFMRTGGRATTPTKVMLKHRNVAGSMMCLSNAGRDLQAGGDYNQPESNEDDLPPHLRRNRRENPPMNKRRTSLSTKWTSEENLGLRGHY

Insulin-degrading enzyme = molecular target: T5, Insulin-degrading enzyme (Homo sapiens, UniProt P14735); assay: Dose Response: Fluorescence polarization-based cell-based high throughput dose response assay for inhibitors of insulin-degrading enzyme (IDE). [Related pubchem assays: 434962 (Primary screen (IDE inhibitors in singlicate)), 449730 (Counterscreen (Cytotoxicity in triplicate)), 435028 (Confirmation (IDE inhibitors in triplicate)), 434984 (Summary …; format: functional
T5 sequence (P14735 whole entry): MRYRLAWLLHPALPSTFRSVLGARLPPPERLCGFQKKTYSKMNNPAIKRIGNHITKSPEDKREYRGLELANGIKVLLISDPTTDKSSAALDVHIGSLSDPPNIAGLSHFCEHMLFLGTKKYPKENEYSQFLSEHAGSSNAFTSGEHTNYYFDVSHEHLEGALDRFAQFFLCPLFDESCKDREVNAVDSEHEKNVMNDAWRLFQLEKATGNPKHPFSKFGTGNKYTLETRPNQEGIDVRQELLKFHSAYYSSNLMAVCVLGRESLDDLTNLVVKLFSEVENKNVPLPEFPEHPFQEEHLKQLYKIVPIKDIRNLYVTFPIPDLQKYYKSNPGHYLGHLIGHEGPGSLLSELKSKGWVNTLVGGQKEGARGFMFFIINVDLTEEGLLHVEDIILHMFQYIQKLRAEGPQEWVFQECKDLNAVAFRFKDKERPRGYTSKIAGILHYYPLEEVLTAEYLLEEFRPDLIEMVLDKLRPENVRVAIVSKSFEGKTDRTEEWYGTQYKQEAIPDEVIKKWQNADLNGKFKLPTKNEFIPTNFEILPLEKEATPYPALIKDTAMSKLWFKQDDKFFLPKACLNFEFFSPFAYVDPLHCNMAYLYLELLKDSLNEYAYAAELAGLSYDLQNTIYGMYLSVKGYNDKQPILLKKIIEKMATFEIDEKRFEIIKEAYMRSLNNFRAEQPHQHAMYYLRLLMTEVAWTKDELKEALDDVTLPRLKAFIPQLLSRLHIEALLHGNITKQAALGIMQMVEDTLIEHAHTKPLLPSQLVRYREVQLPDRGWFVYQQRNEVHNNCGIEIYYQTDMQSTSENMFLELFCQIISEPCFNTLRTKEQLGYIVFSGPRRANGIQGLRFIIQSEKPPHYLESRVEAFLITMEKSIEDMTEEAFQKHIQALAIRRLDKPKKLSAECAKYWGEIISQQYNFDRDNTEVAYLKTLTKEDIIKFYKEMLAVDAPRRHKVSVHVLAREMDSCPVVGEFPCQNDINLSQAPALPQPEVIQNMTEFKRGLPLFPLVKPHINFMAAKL

[10] = Trypanosoma cruzi growth suppression in host cells – NIH3T3 host cells, beta-gal luminescence, confirmation (AID 2044); format: functional, cell-based;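 further: intracellular parasites grown in NIH/3T3 mouse fibroblasts as host cells; luminescent beta-galactosidase reporter signal from transgenic T. cruzi replicating inside host cells; inhibitors lower the luminescence signal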
[11] = NIH3T3 cell viability loss – ATP luminescence, mouse fibroblasts, counter-screen, dose response (AID 2010); format: functional, cell-based;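 further: cells exposed to compound for about 90 hours before reading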
[12] = molecular target: Neurotensin receptor type 1 (Homo sapiens, UniProt P30989); format: functional;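 further: Image-based confirmatory dose-response assay measuring agonist activity at NTR1; NTR1-expressing U2OS osteosarcoma cells imaged for beta-arrestin GFP spot formation; agonist potency where compounds increase beta-arrestin recruitment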
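Wherever AC50 is given: cells exposed to compound for roughly 70 hours or longer before luminescence read.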

Sequence of Polyadenylate-binding protein 1 (P11940 whole entry): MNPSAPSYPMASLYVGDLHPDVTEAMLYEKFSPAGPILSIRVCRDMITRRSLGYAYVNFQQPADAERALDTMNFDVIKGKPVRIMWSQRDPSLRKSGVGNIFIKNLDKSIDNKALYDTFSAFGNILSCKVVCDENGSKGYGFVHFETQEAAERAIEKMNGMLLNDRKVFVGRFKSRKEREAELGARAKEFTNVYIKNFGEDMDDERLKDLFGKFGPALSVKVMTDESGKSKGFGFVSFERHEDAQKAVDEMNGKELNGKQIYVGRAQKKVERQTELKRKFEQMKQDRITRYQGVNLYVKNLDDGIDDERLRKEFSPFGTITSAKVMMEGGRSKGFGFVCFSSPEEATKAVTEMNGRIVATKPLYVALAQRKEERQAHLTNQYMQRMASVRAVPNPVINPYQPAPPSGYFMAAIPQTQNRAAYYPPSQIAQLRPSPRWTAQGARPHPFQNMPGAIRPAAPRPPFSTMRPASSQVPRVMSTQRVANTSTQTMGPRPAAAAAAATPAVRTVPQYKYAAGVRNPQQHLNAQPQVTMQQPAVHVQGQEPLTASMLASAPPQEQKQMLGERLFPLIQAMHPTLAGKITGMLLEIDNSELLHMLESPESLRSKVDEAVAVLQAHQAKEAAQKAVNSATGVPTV
Sequence of Nucleotide-binding oligomerization domain-containing protein 2 (Q9HC29 whole entry, the tested form may be a part): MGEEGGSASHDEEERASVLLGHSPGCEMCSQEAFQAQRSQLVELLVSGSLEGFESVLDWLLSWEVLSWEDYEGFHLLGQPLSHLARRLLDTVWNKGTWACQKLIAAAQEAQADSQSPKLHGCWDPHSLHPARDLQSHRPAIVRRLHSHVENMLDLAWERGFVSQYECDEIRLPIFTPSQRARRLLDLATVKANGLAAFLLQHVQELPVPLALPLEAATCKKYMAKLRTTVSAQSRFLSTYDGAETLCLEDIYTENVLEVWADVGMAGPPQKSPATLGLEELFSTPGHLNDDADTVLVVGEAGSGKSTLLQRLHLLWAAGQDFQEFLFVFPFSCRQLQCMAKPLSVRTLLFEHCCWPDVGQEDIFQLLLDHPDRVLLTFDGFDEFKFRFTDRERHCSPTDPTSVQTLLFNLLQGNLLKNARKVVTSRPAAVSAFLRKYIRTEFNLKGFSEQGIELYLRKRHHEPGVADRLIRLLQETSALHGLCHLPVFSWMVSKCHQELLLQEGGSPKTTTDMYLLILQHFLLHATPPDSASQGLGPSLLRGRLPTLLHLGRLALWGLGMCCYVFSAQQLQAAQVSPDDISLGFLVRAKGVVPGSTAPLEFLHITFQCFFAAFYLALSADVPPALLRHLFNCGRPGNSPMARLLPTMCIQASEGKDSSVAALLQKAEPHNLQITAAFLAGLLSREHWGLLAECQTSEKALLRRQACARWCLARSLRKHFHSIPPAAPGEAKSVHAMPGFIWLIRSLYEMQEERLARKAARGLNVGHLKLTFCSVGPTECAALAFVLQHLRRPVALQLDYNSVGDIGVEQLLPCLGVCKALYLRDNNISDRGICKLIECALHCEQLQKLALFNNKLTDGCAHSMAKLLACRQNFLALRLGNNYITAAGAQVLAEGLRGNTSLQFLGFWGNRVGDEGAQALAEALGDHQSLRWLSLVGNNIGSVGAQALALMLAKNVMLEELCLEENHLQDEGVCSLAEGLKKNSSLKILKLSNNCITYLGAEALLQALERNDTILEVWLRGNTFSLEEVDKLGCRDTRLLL
Sequence of Tumor necrosis factor (P01375 whole entry, the tested form may be a part): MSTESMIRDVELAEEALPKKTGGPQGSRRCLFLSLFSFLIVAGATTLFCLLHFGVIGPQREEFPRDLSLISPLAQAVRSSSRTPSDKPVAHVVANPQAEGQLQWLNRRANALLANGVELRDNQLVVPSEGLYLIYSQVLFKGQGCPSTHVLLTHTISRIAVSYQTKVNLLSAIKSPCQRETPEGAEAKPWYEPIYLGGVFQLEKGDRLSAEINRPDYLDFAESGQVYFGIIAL
Sequence of Integrin alpha-4 (P13612 whole entry, the tested form may be a part): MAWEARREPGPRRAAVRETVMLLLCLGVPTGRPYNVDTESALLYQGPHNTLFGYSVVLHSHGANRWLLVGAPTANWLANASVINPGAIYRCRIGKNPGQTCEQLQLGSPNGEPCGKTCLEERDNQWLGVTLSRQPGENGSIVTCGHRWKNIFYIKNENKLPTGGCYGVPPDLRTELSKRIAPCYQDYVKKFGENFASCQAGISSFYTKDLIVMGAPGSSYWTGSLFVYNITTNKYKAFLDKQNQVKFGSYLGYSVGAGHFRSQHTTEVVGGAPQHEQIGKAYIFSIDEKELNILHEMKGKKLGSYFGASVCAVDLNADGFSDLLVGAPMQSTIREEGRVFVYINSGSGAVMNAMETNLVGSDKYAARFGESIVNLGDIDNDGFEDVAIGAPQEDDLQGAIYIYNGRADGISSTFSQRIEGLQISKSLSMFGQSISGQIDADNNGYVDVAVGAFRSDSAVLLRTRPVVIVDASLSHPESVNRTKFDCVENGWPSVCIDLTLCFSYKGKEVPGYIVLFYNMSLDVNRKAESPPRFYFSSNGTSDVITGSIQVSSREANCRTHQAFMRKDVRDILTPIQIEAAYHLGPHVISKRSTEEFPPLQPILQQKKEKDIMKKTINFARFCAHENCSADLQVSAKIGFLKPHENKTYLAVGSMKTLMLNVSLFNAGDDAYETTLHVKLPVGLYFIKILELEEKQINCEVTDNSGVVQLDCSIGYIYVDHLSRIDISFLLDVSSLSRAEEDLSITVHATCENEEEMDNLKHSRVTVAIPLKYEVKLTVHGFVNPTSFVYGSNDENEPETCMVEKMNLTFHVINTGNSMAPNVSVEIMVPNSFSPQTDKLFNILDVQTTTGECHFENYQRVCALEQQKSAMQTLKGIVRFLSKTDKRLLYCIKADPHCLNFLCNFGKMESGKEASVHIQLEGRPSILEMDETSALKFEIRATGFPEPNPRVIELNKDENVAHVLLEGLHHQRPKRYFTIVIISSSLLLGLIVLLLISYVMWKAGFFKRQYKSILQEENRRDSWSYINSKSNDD
Sequence of Neurotensin receptor type 1 (P30989 whole entry): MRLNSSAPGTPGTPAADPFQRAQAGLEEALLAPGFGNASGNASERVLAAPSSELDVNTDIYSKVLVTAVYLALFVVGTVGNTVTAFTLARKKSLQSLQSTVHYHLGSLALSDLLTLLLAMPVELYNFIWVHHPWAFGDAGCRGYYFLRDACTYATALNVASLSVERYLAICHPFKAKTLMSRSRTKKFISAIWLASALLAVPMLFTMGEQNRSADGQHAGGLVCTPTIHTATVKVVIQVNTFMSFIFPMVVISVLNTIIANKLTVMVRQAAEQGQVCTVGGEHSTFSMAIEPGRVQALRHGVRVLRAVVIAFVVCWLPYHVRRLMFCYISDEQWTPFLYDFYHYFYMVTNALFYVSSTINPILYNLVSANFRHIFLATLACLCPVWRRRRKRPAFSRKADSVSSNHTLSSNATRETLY

With `O=C(Nc1ccc(F)cc1)C1CCCN1C(=O)Oc1ccccc1` (centres undefined) the IC50 [1] was > 100 µM (inactive) and the IC50 [2] was > 100 µM (inactive).
In the case of `CN(C(=O)C1CCN(C(=O)c2cccs2)CC1)c1ccccc1`, the IC50 [1] is reported as > 100 µM (inactive) and the IC50 [2] is reported as > 100 µM (inactive).
For `COC(=O)c1c(NC(=O)c2cccc(F)c2)sc2c1CCC(C)C2` (centres undefined), the IC50 (Tumor necrosis factor) was > 20 µM (inactive), the IC50 [3] was > 20 µM (inactive) and the IC50 [4] was > 20 µM (inactive). The IC50 (HEK293) was > 20 µM (inactive).
For `c1ccc2c(-c3ccc(OCCN4CCCCC4)cc3)c(-c3ccsc3)sc2c1`, the AC50 [5] was 1.27 µM (active), the IC50 [6] was > 20 µM (inactive) and the EC50 (Integrin alpha-4) was > 69.8 µM (inactive).
In the case of `O=C1CCC/C(=N/NC(=O)c2sc3ccccc3c2Cl)C1`, the EC50 [7] is reported as 22 µM (active), the IC50 [8] is reported as > 55.7 µM (not active) and the EC50 [9] is reported as 20.5 µM (active). The IC50 (Insulin-degrading enzyme) was 26.3 µM (not active).
In the case of `Oc1ccc(-c2cc(-c3ccc(O)cc3)nc(-c3ccccc3)n2)cc1`, the EC50 [10] is reported as 3.86 µM (active), the EC50 [11] is reported as > 60 µM (not active) and the AC50 [5] is reported as 1.81 µM (active). The EC50 [12] was 19.4 µM (active).
